Literature values in patent publication US20080262249A1, “Psorospermin and Analogues” (priority 2004, published 2008).

Legend:
[1] = target: T1, topoisomerase II-DNA complex (Drosophila melanogaster, UniProt P15348)
T1 sequence (P15348 1-1447): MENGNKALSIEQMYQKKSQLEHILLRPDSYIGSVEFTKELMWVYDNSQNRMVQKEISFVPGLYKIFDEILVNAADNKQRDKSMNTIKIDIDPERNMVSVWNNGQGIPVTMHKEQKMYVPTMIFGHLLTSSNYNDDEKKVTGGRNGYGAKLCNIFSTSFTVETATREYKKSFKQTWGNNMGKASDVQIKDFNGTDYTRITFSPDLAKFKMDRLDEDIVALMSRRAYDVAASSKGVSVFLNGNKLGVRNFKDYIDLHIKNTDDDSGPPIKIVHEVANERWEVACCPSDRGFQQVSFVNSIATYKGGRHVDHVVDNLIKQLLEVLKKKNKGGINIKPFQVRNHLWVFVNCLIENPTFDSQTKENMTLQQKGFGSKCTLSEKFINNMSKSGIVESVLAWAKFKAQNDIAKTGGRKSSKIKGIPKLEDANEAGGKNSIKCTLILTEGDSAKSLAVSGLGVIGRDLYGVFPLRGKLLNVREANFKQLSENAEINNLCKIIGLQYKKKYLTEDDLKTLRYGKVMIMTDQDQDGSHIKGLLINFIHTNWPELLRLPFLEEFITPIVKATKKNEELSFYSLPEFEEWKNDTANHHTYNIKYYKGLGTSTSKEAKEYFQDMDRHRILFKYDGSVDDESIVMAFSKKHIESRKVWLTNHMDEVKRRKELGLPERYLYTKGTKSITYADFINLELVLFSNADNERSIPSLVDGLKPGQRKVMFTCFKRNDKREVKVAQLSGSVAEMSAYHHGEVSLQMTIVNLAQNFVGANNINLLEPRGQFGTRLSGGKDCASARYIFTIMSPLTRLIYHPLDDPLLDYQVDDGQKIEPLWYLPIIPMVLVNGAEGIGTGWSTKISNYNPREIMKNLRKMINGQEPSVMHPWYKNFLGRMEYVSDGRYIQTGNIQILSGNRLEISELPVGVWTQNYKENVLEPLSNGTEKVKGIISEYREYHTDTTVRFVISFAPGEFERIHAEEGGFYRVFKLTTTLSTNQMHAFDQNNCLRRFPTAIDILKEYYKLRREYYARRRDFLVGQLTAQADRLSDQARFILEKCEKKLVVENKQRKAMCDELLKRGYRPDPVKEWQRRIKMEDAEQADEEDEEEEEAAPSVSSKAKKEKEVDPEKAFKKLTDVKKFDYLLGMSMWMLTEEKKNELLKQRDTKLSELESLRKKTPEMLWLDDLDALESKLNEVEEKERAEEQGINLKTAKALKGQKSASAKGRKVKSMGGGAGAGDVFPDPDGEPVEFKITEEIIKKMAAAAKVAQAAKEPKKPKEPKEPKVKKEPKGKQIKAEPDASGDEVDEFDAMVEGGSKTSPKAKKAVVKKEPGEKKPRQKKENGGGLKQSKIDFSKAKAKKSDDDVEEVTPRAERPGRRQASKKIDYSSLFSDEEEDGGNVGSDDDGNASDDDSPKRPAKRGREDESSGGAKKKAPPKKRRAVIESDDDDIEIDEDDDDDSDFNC

[2] = target: T1, topoisomerase II-DNA complex; remark: listed apart in the source

## C/C=C\C1OC1(C)c1cc(=O)c2c(C)cc3c(c2o1)C(=O)c1c(O)c([C@H]2C[C@](C)(N(C)C)[C@@H](OC(C)=O)[C@@H](C)O2)cc([C@@H]2C[C@H](N(C)C)[C@@H](O)[C@@H](C)O2)c1C3=O (some centres unmarked) [pluramycin, reference compound]
[1]; increasing topoisomerase II concentration
  effect of increasing topoisomerase II concentration on DNA alkylation: inhibited

## COc1cc2c(c3oc4c(O)cccc4c(=O)c13)C[C@H]([C@@]1(C)CO1)O2 [psorospermin]
[1]; site A
  enhancement of psorospermin alkylation at site A by topoisomerase II: 3 fold
[1]; site B, guanine at +4′ position
  enhancement of psorospermin alkylation at site B by topoisomerase II: 25 fold
[2]; addition of excess salt
  reversibility of stimulated topoisomerase II-induced DNA cleavage: slowly reversed
[2]; site B, 10 μM drug concentration
  psorospermin-induced DNA cleavage by topoisomerase II, maximum: 3 fold
